Reference: article PMC10180076, “Novel Biologically Active N-Substituted Benzimidazole Derived Schiff Bases: Design, Synthesis, and Biological Evaluation” (Molecules, 2023)
≈ marks a conversion by molar mass, not a printed value. Where two headings read alike, the source gives them in different places.

How the values were obtained:
[1] = system: K-562, chronic myeloid leukemia; assay: Proliferation assay (MTS, 72 h), K-562; assay type: cell-based, human; details: Homo sapiens, K562
From the text: (§1) Human cancer cells used in this manuscript, namely Capan-1, HCT-116, NCI-H460, LN-229, HL-60, K-562, and Z-138, were acquired from the American Type Culture Collection (ATCC, Manassas, VA, USA), while the DND-41 cell line was purchased from the Deutsche Sammlung von Mikroorganismen und Zellkulturen (DSMZ Leibniz-Institut, Braunschweig, Germany). Culture media were purchased from Gibco Life Technologies, Merelbeke, Belgium, and supplemented with 10% fetal bovine serum (HyClone, Cytiva, Marlborough, MA, USA). Vincristine and docetaxel, which were used as the reference inhibitors, were purchased from Selleckchem (Munich, Germany). Stock solutions were prepared in DMSO.
(§2) Adherent cell lines LN-229, HCT-116, and NCI-H460 and Capan-1 cells were seeded at a density between 500 and 1500 cells per well, in 384-well tissue culture plates (Greiner, Kremsmünster, Austria). After overnight incubation, the cells were treated with seven different concentrations of the test compounds, ranging from 100 to 0.006 µM.
(§3) Suspension cell lines HL-60, K-562, Z-138, and DND-41 were seeded at densities ranging from 2500 to 5500 cells per well in 384-well culture plates containing the test compounds at the same concentration points. The cells were incubated for 72 h with the compounds and were then analyzed using the CellTiter 96® AQueous One Solution Cell Proliferation Assay (MTS) reagent (Promega, Madison, WI, USA) according to the manufacturer’s instructions. […] The compounds were tested in two independent experiments.

[2] = system: K. pneumoniae ATCC 700603; assay: Broth microdilution MIC, K. pneumoniae; assay type: cell-based; details: Klebsiella pneumoniae, ATCC700603; read-out: MIC against K. pneumoniae
Description: (§4) Selected bacterial strains were Gram-negative E. coli, K. pneumoniae, A. baumannii and P. aeruginosa and Gram-positive S. aureus, S. pneumoniae, and E. faecalis. The synthesized compounds were prepared as 10 mM DMSO solutions and tested in a final concentration range of 0.2–100 µM [39].
(§5) Broth microdilution testing was performed according to CLSI (Clinical Laboratory Standards Institute) guidelines. The MIC (minimal inhibitory concentration) value was defined as the last tested concentration of the compound at which there was no visible growth of bacteria. Inoculums for each microorganism were prepared using the direct colony suspension method, where broth solutions that achieved turbidity equivalent to 0.5 McFarland standard were additionally diluted 100× with Ca adjusted MH media (Becton Dickinson, Franklin Lakes, NJ, USA). All of the test plates were incubated for 16–24 h at 37 °C.
(§6) Methods for dilution of antimicrobial susceptibility tests for bacteria that grow aerobically followed M07, 11th edition, 2018, and Clinical and Laboratory Standards Institute (CLSI) guidelines. Performance standards for antimicrobial susceptibility testing followed the M100, 28th edition, 2018.

[3] = system: DND-41, acute lymphoblastic leukemia; assay: Proliferation assay (MTS, 72 h), DND-41; assay type: cell-based, human; details: Homo sapiens, DND41
From the text: as §1, §2, §3

[4] = system: HCT-116, colorectal carcinoma; assay: Proliferation assay (MTS, 72 h), HCT-116; assay type: cell-based, human; details: Homo sapiens, HCT-116
From the text: as §1, §2, §3

[5] = system: LN-229, glioblastoma; assay: Proliferation assay (MTS, 72 h), LN-229; assay type: cell-based, human; details: Homo sapiens, LN-229
From the text: as §1, §2, §3

[6] = system: S. aureus ATCC 29213; assay: Broth microdilution MIC, S. aureus; assay type: cell-based; details: Staphylococcus aureus, ATCC29213; read-out: MIC against S. aureus
Description: as §4, §5, §6

[7] = system: E. faecalis ATCC 29212; assay: Broth microdilution MIC, E. faecalis; assay type: cell-based; details: Enterococcus faecalis, ATCC29212; read-out: MIC against E. faecalis
Description: as §4, §5, §6

[8] = system: NCI-H460, lung carcinoma; assay: Proliferation assay (MTS, 72 h), NCI-H460; assay type: cell-based, human; details: Homo sapiens, NCI-H460
From the text: as §1, §2, §3

[9] = system: HL-60, acute myeloid leukemia; assay: Proliferation assay (MTS, 72 h), HL-60; assay type: cell-based, human; details: Homo sapiens, HL-60
From the text: as §1, §2, §3

[10] = system: E. coli efflux del; assay: microbe, parasite or virus in culture; assay type: cell-based; details: for MIC E. coli efflux del: Table 2 prints no unit, μM for compounds, antibiotics tested at 0.125–64 µg/mL
Description: as §4, §5, §6

[11] = system: Capan-1, pancreatic adenocarcinoma; assay: Proliferation assay (MTS, 72 h), Capan-1; assay type: cell-based, human; details: Homo sapiens, CAPAN-1
From the text: as §1, §2, §3

[12] = system: Z-138, non-Hodgkin lymphoma; assay: Proliferation assay (MTS, 72 h), Z-138; assay type: cell-based, human; details: Homo sapiens, Z-138
From the text: as §1, §2, §3

[13] = system: influenza B (B/Ned/537/05); assay: Antiviral CPE reduction assay, influenza B in MDCK; assay type: cell-based; details: Influenza B virus; MDCK cells, 100 CCID50, MTS
[14] = system: human cancer cell lines; assay: Proliferation assay (MTS, 72 h), range over several cancer cell lines; assay type: cell-based
From the text: as §1
Adherent cell lines LN-229, HCT-116, and NCI-H460 and Capan-1 cells were seeded at a density between 500 and 1500 cells per well, in 384-well tissue culture plates (Greiner, Kremsmünster, Austria). […]
Suspension cell lines HL-60, K-562, Z-138, and DND-41 were seeded at densities ranging from 2500 to 5500 cells per well in 384-well culture plates containing the test compounds at the same concentration points. The cells were incubated for 72 h with the compounds and were then analyzed using the CellTiter 96® AQueous One Solution Cell Proliferation Assay (MTS) reagent (Promega, Madison, WI, USA) according to the manufacturer’s instructions. […]

[15] = system: respiratory syncytial virus A (Long); assay: Antiviral CPE reduction assay, RSV A in HEL 299; assay type: cell-based; details: human respiratory syncytial virus; HEL 299 cells, 100 CCID50, MTS
[16] = in vitro; details: human
[17] = system: sindbis virus; assay: Antiviral CPE reduction assay, Sindbis virus in Huh-7; assay type: cell-based; details: Huh-7 cells, 100 CCID50, MTS
[18] = system: human coronavirus HCoV-OC43; assay: microbe, parasite or virus in culture; assay type: cell-based; details: Betacoronavirus 1, OC43; HEL 299 cells, 100 CCID50, MTS; read-out: Antiviral Activity (EC50/μM) HCoV OC43 HEL 299
[19] = system: herpes simplex virus-1 (HSV-1 KOS); assay: Antiviral CPE reduction assay, HSV-1 KOS in HEL 299; assay type: cell-based; details: Human alphaherpesvirus 1; HEL 299 cells, 100 CCID50, MTS
[20] = in vitro; details: human; remark: listed apart in the source
[21] = in vitro; details: dog
[22] = system: influenza A/H1N1 (A/Ned/378/05); assay: Antiviral CPE reduction assay, influenza A/H1N1 in MDCK; assay type: cell-based; details: Influenza A virus, MDCK cells, 100 CCID50, MTS
[23] = system: human coronavirus HCoV-229E; assay: organism not typed; assay type: cell-based; details: HEL 299 cells, 100 CCID50, MTS; read-out: Antiviral Activity (EC50/μM) HCoV 229E HEL 299
[24] = system: Zika virus (Mr776); assay: Antiviral CPE reduction assay, Zika virus in Huh-7; assay type: cell-based; details: Huh-7 cells, 100 CCID50, MTS
[25] = system: influenza A/H3N2 (A/HK/7/87); assay: Antiviral CPE reduction assay, influenza A/H3N2 in MDCK; assay type: cell-based; details: Influenza A virus, MDCK cells, 100 CCID50, MTS
[26] = system: human coronavirus HCoV-NL63; assay: Antiviral CPE reduction assay, HCoV-NL63 in Huh-7; assay type: cell-based; details: Huh-7 cells, 100 CCID50, MTS
[27] = system: yellow fever virus (YFV 17D); assay: microbe, parasite or virus in culture; assay type: cell-based; details: Huh-7, read-out: Antiviral Activity (EC50/μM) YFV 17D Huh-7

Structure (SMILES) | IC50 [1] | IC50 [3] | IC50 [4] | IC50 [5] | MIC [6] | MIC [7] | IC50 [8] | IC50 [9] | MIC E. coli efflux del [10] | IC50 [11] | IC50 [12] | EC50 [13] | EC50 [15] | EC50 [17] | EC50 [18] | EC50 [19] | CC50 [21] | melting point | EC50 [22] | EC50 [23] | other results
CCCCCCn1c(N)nc2ccccc21 [Compound 23, 2-Amino-1-hexylbenzimidazole] | 46.7 µM | 47.7 µM | 57.4 µM | 45.2 µM | 16 µM (≈ 3.48 µg/mL) | 32 µM (≈ 6.95 µg/mL) | 60.2 µM | 44.9 µM | 32 | 46.5 µM | 44.7 µM | – | – | – | – | – | – | – | – | – | MIC [2]: 32 µM (≈ 6.95 µg/mL); MIC ([10]; Escherichia coli, read-out: MIC against E. coli efflux dell): 32 µM (≈ 6.95 µg/mL)
CCN(CC)c1ccc(/C=N/c2nc3ccc(C#N)cc3n2CC(C)C)c(O)c1 [Compound 31, (E)-2-((4-(Diethylamino)-2-hydroxybenzylidene)amino)-1-isobutyl-1H-benzo[d]imidazole-6-carbonitrile] | > 100 µM | 34.4 µM | > 100 µM | > 100 µM | – | – | > 100 µM | 47.6 µM | – | 32.8 µM | > 100 µM | > 100 µM | > 100 µM | > 100 µM | > 100 µM | > 100 µM | 1.3 µM | 205 to 208 °C | > 100 µM | > 100 µM | IC50 ([14]; three cancer cell types, read-out: IC50, range over three cancer cell types): 32.8 to 47.6 µM; CC50 [16]: 85.7 µM; CC50 [20]: > 100 µM; EC50 [24]: > 100 µM; EC50 [25]: > 100 µM; EC50 [26]: 32 µM; EC50 [27]: > 100 µM
Cn1c(/N=C/c2ccc([N+](=O)[O-])cc2)nc2ccc(C#N)cc21 [Compound 37, (E)-1-Methyl-2-((4-nitrobenzylidene)amino)-1H-benzo[d]imidazole-6-carbonitrile] | > 100 µM | > 100 µM | > 100 µM | > 100 µM | 32 µM (≈ 9.77 µg/mL) | – | > 100 µM | > 100 µM | >64 | > 100 µM | > 100 µM | – | – | – | – | – | – | – | – | – | –
CCN(CC)c1ccc(/C=N/c2nc3ccccc3n2-c2ccccc2)c(O)c1 [Compound 40, (E)-5-(Diethylamino)-2-(((1-phenyl-1H-benzo[d]imidazol-2-yl)imino)methyl)phenol] | 12.9 µM | 2.2 µM | 9.6 µM | 21.5 µM | – | – | 43.7 µM | 1.1 µM | – | 2.4 µM | 4.4 µM | – | – | – | – | – | – | 197 to 201 °C | – | – | IC50 ([14]; Capan-1, DND-41, HL-60 and Z-138 cancer cell lines, read-out: IC50, range over several cancer cell lines): 1.1 to 4.4 µM
CCCCCCn1c(/N=C/c2ccc(N(C)C)cc2)nc2ccccc21 [Compound 42, (E)-4-(((1-Hexyl-1H-benzo[d]imidazol-2-yl)imino)methyl)-N,N-dimethylaniline] | 90.8 µM | > 100 µM | > 100 µM | > 100 µM | 32 µM (≈ 11.2 µg/mL) | 32 µM (≈ 11.2 µg/mL) | 64.4 µM | 73.2 µM | 64 | > 100 µM | > 100 µM | > 100 µM | > 100 µM | > 100 µM | > 100 µM | > 100 µM | 34.6 µM | 231 to 234 °C | > 100 µM | 34.7 µM | EC50 [24]: > 100 µM; EC50 [25]: > 100 µM; EC50 [26]: > 100 µM; EC50 [27]: > 100 µM
